Results taken from US8426408B2, “Pyrimidine inhibitors of kinases” (AbbVie Inc., priority 2009, dated 2013).

Legend:
[1] = biological target: T1, Aurora B (Homo sapiens, UniProt Q96GD4); experiment: Aurora B enzyme inhibition (time-resolved fluorescence, histone H3 peptide); assay type: biochemical; details: 1 mM ATP
T1 construct: Active Aurora B enzyme (recombinant residues 1-344)
In short: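 Recombinant Aurora B (residues 1-344) with GST-INCENP phosphorylated biotinylated histone H3 (1-21) peptide at 1 mM ATP in HEPES pH 7.4 with MgCl2, orthovanadate and Triton X-100 for 1 h. After EDTA stop, the phosphopeptide was detected by TR-FRET (Eu-cryptate anti-phospho-H3 / SA-APC, 665/615 nm ratio). IC50 from an exponential fit.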

[2] = biological target: T2, Aurora A (Homo sapiens, UniProt O14965); experiment: Aurora A enzyme inhibition (time-resolved fluorescence, STK substrate-2); assay type: biochemical; details: 1 mM ATP
T2 sequence (O14965 1-403): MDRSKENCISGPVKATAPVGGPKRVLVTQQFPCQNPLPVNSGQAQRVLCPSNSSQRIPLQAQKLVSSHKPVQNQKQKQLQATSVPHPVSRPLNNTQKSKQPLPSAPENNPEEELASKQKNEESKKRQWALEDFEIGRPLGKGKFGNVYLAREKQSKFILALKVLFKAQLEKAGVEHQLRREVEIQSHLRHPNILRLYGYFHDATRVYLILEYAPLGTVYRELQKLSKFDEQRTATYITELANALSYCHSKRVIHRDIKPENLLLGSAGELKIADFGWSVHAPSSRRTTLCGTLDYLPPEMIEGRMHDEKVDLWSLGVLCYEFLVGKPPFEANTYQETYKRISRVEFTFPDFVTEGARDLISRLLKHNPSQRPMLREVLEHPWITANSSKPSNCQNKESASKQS
In short: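 Active enzyme incubated 1 h with biotinylated STK substrate-2, 1 mM ATP and inhibitor in Hepes pH 7.4 with MgCl2, orthovanadate and Triton X-100. EDTA stop; phosphopeptide detected by Eu-cryptate anti-phospho-STK/SA-XL665 TR-FRET (665/615 nm ratio); IC50 by exponential fit.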

[3] = biological target: KDR (Homo sapiens, UniProt P35968); experiment: KDR HTRF in vitro kinase assay; assay type: biochemical; parameters: purified enzyme (His6-KDR 789-1354, MW 63 kD); His6 (N); details: 1 mM ATP; read-out: KDR enzyme inhibition data (Ki)
In short: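 His6-KDR 789-1354 (7 ng/well) with 0.5 μM biotinylated peptide substrate and 1 mM ATP in HEPES pH 7.1, MgCl2/MnCl2, 60 min at room temperature. EDTA-quenched, detected by streptavidin-XL-665 plus Eu-kryptate anti-phosphotyrosine HTRF after 3 h; IC50 from 620/665 nm ratio.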

[4] = test system: NCI-H1299 cells; experiment: Induction of polyploidy in H1299; assay type: cell-based, Human; details: NCI-H1299, 48 hours
Method: To determine the induction of polyploidy in H1299 cells, NCI-H1299 were seeded (4K/well) into 96-well culture plates (tissue culture grade, black, flat-clear bottom) and incubated overnight to produce cell-to-plate adherence. Inhibitors at varying concentrations were added into duplicate wells containing cells and culture media (RPMI 1640, 10% fetal calf serum) and incubated at 37 C for 48 hours. The plates were then washed with PBS and the adherent cells fixed by incubating with 3% formalin for 1 hour. After washing four times with PBS, the cells were then stained with Hoechst and subjected to fluorescent (360 i/460e) microscopic high content analysis to determine the effect of inhibitors on nuclear size. Polyploid cells (≧4N) were defined as those having nuclear area>750μ^2. Potency was expressed as the concentration of inhibitor necessary to induce polyploidy in 15% of cells (EC15) and was calculated from least squares analysis of the log dose-response.

Chain of KDR (P35968 789-1354): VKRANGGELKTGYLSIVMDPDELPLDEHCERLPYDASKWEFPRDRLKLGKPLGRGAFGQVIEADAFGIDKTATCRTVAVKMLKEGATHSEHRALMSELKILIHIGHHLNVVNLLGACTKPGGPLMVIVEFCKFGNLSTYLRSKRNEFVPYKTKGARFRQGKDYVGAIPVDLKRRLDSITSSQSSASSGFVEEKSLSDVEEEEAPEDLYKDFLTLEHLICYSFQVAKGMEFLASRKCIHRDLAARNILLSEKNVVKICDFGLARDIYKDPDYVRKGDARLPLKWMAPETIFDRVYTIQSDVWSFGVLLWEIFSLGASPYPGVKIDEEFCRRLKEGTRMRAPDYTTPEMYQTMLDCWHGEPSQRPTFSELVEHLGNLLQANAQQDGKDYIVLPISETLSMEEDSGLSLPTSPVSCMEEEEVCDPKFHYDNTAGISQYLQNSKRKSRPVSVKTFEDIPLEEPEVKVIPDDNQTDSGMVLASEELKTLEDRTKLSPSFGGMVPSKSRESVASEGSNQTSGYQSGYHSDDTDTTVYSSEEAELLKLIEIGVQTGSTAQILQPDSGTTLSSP
T1 sequence (Q96GD4 whole entry, the tested form may be a part): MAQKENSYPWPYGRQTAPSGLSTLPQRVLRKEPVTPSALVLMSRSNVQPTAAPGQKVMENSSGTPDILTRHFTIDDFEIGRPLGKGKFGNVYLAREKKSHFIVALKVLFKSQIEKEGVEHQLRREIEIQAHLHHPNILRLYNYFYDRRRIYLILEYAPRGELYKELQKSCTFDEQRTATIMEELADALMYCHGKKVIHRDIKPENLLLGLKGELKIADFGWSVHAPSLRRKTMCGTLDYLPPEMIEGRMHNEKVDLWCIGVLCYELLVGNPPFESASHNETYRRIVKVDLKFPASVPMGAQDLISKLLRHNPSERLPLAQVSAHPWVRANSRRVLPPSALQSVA
T1 sequence (Q9NQS7 826-918 partner limits assumed): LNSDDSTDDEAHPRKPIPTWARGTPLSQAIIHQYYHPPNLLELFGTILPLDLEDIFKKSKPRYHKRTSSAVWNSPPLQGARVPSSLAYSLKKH

SMILES	Ki [1]	Ki [2]	Ki [3]	EC15 ([4]; Homo sapiens, read-out: EC15 (concentration of inhibitor necessary to induce polyploidy in 15% of cells))	EC15 (concentration of inhibitor necessary to induce polyploidy in 15% of cells) [4]
Cn1cc(Nc2nccc(NC3C4C=CC(C4)C3C(N)=O)n2)cn1 (mixture of isomers) [Example 2, (1S,2S,3R,4R)-3-({2-[(1-methyl-1H-pyrazol-4-yl)amino]pyrimidin-4-yl}amino)bicyclo[2.2.1]hept-5-ene-2-carboxamide and (1R,2R,3S,4S)-3-({2-[(1-methyl-1H-pyrazol-4-yl)amino]pyrimidin-4-yl}amino)bicyclo[2.2.1]hept-5-ene-2-carboxamide]	100 to 1000 nM	1000 to 5000 nM	> 5000 nM	< 100 nM	–
NC(=O)[C@@H]1[C@H](Nc2nc(Nc3cn[nH]c3)ncc2F)[C@H]2C=C[C@@H]1C2.NC(=O)[C@H]1[C@@H](Nc2nc(Nc3cn[nH]c3)ncc2F)[C@@H]2C=C[C@H]1C2 (mixture of isomers) [Example 5, (1S,2S,3R,4R)-3-{[5-fluoro-2-(1H-pyrazol-4-ylamino)pyrimidin-4-yl]amino}bicyclo[2.2.1]hept-5-ene-2-carboxamide and (1R,2R,3S,4S)-3-{[5-fluoro-2-(1H-pyrazol-4-ylamino)pyrimidin-4-yl]amino}bicyclo[2.2.1]hept-5-ene-2-carboxamide]	< 100 nM	100 to 1000 nM	100 to 1000 nM	–	B (“B” represents an EC15 of between 0.1 μM and 1 μM)
CCn1cc(Nc2ncc(F)c(N[C@@H]3[C@H](C(N)=O)[C@H]4C=C[C@@H]3C4)n2)cn1.CCn1cc(Nc2ncc(F)c(N[C@H]3[C@@H](C(N)=O)[C@@H]4C=C[C@H]3C4)n2)cn1 (mixture of isomers) [Example 8, (1S,2S,3R,4R)-3-({2-[(1-ethyl-1H-pyrazol-4-yl)amino]-5-fluoropyrimidin-4-yl}amino)bicyclo[2.2.1]hept-5-ene-2-carboxamide and (1R,2R,3S,4S)-3-({2-[(1-ethyl-1H-pyrazol-4-yl)amino]-5-fluoropyrimidin-4-yl}amino)bicyclo[2.2.1]hept-5-ene-2-carboxamide]	< 100 nM	< 100 nM	100 to 1000 nM	–	A (“A” represents an EC15 of less than 0.1 μM)
CNC(=O)[C@@H]1[C@H](Nc2nc(Nc3cnn(C)c3)ncc2F)[C@H]2C=C[C@@H]1C2.CNC(=O)[C@H]1[C@@H](Nc2nc(Nc3cnn(C)c3)ncc2F)[C@@H]2C=C[C@H]1C2 (mixture of isomers) [Example 9, (1S,2S,3R,4R)-3-({5-fluoro-2-[(1-methyl-1H-pyrazol-4-yl)amino]pyrimidin-4-yl}amino)-N-methylbicyclo[2.2.1]hept-5-ene-2-carboxamide and (1R,2R,3S,4S)-3-({5-fluoro-2-[(1-methyl-1H-pyrazol-4-yl)amino]pyrimidin-4-yl}amino)-N-methylbicyclo[2.2.1]hept-5-ene-2-carboxamide]	< 100 nM	100 to 1000 nM	> 5000 nM	–	A (“A” represents an EC15 of less than 0.1 μM)
NC(=O)[C@@H]1[C@H](Nc2nc(Nc3cnn(CCO)c3)ncc2F)[C@H]2C=C[C@@H]1C2.NC(=O)[C@H]1[C@@H](Nc2nc(Nc3cnn(CCO)c3)ncc2F)[C@@H]2C=C[C@H]1C2 (mixture of isomers) [Example 11, (1S,2S,3R,4R)-3-[(5-fluoro-2-{[1-(2-hydroxyethyl)-1H-pyrazol-4-yl]amino}pyrimidin-4-yl)amino]bicyclo[2.2.1]hept-5-ene-2-carboxamide and (1R,2R,3S,4S)-3-[(5-fluoro-2-{[1-(2-hydroxyethyl)-1H-pyrazol-4-yl]amino}pyrimidin-4-yl)amino]bicyclo[2.2.1]hept-5-ene-2-carboxamide]	< 100 nM	< 100 nM	100 to 1000 nM	–	A (“A” represents an EC15 of less than 0.1 μM)
Cn1cc(Nc2ncc(F)c(N[C@@H]3[C@H]4CC[C@H](C4)[C@@H]3C(N)=O)n2)cn1.Cn1cc(Nc2ncc(F)c(N[C@H]3[C@@H]4CC[C@@H](C4)[C@H]3C(N)=O)n2)cn1 (mixture of isomers) [Example 12, (1R,2S,3R,4S)-3-({5-fluoro-2-[(1-methyl-1H-pyrazol-4-yl)amino]pyrimidin-4-yl}amino)bicyclo[2.2.1]heptane-2-carboxamide and (1S,2R,3S,4R)-3-({5-fluoro-2-[(1-methyl-1H-pyrazol-4-yl)amino]pyrimidin-4-yl}amino)bicyclo[2.2.1]heptane-2-carboxamide]	< 100 nM	100 to 1000 nM	100 to 1000 nM	–	B (“B” represents an EC15 of between 0.1 μM and 1 μM)
CCn1cc(Nc2ncc(F)c(N[C@@H]3[C@H]4CC[C@H](C4)[C@@H]3C(N)=O)n2)cn1.CCn1cc(Nc2ncc(F)c(N[C@H]3[C@@H]4CC[C@@H](C4)[C@H]3C(N)=O)n2)cn1 (mixture of isomers) [Example 13, (1R,2S,3R,4S)-3-({2-[(1-ethyl-1H-pyrazol-4-yl)amino]-5-fluoropyrimidin-4-yl}amino)bicyclo[2.2.1]heptane-2-carboxamide and (1S,2R,3S,4R)-3-({2-[(1-ethyl-1H-pyrazol-4-yl)amino]-5-fluoropyrimidin-4-yl}amino)bicyclo[2.2.1]heptane-2-carboxamide]	< 100 nM	< 100 nM	100 to 1000 nM	–	B (“B” represents an EC15 of between 0.1 μM and 1 μM)
NC(=O)[C@@H]1[C@H]2CC[C@H](C2)[C@@H]1Nc1nc(Nc2cnn(CCO)c2)ncc1F.NC(=O)[C@H]1[C@@H]2CC[C@@H](C2)[C@H]1Nc1nc(Nc2cnn(CCO)c2)ncc1F (mixture of isomers) [Example 14, (1R,2S,3R,4S)-3-[(5-fluoro-2-{[1-(2-hydroxyethyl)-1H-pyrazol-4-yl]amino}pyrimidin-4-yl)amino]bicyclo[2.2.1]heptane-2-carboxamide and (1S,2R,3S,4R)-3-[(5-fluoro-2-{[1-(2-hydroxyethyl)-1H-pyrazol-4-yl]amino}pyrimidin-4-yl)amino]bicyclo[2.2.1]heptane-2-carboxamide]	< 100 nM	100 to 1000 nM	1000 to 5000 nM	–	B (“B” represents an EC15 of between 0.1 μM and 1 μM)
Cc1cnc(Nc2cnn(C)c2)nc1N[C@@H]1[C@H](C(N)=O)[C@H]2C=C[C@@H]1C2.Cc1cnc(Nc2cnn(C)c2)nc1N[C@H]1[C@@H](C(N)=O)[C@@H]2C=C[C@H]1C2 (mixture of isomers) [Example 17, (1S,2S,3R,4R)-3-({5-methyl-2-[(1-methyl-1H-pyrazol-4-yl)amino]pyrimidin-4-yl}amino)bicyclo[2.2.1]hept-5-ene-2-carboxamide and (1R,2R,3S,4S)-3-({5-methyl-2-[(1-methyl-1H-pyrazol-4-yl)amino]pyrimidin-4-yl}amino)bicyclo[2.2.1]hept-5-ene-2-carboxamide]	< 100 nM	100 to 1000 nM	100 to 1000 nM	–	A (“A” represents an EC15 of less than 0.1 μM)
Cc1cnc(Nc2cnn(CCO)c2)nc1N[C@@H]1[C@H](C(N)=O)[C@H]2C=C[C@@H]1C2.Cc1cnc(Nc2cnn(CCO)c2)nc1N[C@H]1[C@@H](C(N)=O)[C@@H]2C=C[C@H]1C2 (mixture of isomers) [Example 18, (1S,2S,3R,4R)-3-[(2-{[1-(2-hydroxyethyl)-1H-pyrazol-4-yl]amino}-5-methylpyrimidin-4-yl)amino]bicyclo[2.2.1]hept-5-ene-2-carboxamide and (1R,2R,3S,4S)-3-[(2-{[1-(2-hydroxyethyl)-1H-pyrazol-4-yl]amino}-5-methylpyrimidin-4-yl)amino]bicyclo[2.2.1]hept-5-ene-2-carboxamide]	100 to 1000 nM	100 to 1000 nM	100 to 1000 nM	–	A (“A” represents an EC15 of less than 0.1 μM)
